ChEMBL document CHEMBL5126628, “Aspersterols A-D, Ergostane-Type Sterols with an Unusual Unsaturated Side Chain from the Deep-Sea-Derived Fungus Aspergillus unguis” (J Nat Prod, 2022)
Counter-ions that a name gives are not always drawn.

Key:
ACHN = assay: Growth inhibition of human ACHN cells by SRB assay; assay type: functional
RAW264.7 [1] = assay: Antiinflammatory activity in mouse RAW264.7 cells assessed as reduction in LPS-induced nitric oxide production by griess assay; assay type: functional, cell-based
PC-3 = assay: Growth inhibition of human PC-3 cells by SRB assay; assay type: functional
MDA-MB-231 = assay: Growth inhibition of human MDA-MB-231 cells by SRB assay; assay type: functional
HCT-15 = assay: Growth inhibition of human HCT-15 cells by SRB assay; assay type: functional
NUGC-3 = assay: Growth inhibition of human NUGC-3 cells by SRB assay; assay type: functional
NCI-H23 = assay: Growth inhibition of human NCI-H23 cells by SRB assay; assay type: functional
RAW264.7 [2] = assay: Antiinflammatory activity in mouse RAW264.7 cells assessed as reduction in LPS-induced IL6 mRNA expression […]; assay type: functional, cell-based; conditions: DDE = dose-dependent effect
RAW264.7 [3] = assay: Antiinflammatory activity in mouse RAW264.7 cells assessed as reduction in LPS-induced iNOS mRNA expression […]; assay type: functional, cell-based; conditions: DDE = dose-dependent effect
RAW264.7 [4] = assay: Antiinflammatory activity in mouse RAW264.7 cells assessed as reduction in LPS-induced IL6 production […]; assay type: functional, cell-based; conditions: DDE = dose-dependent effect
RAW264.7 [5] = assay: Antiinflammatory activity in mouse RAW264.7 cells assessed as reduction in LPS-induced nitrite production by griess assay; assay type: functional, cell-based; conditions: DDE = dose-dependent effect

Row | GI50 (ACHN) [µM] | IC50 (RAW264.7 [1]) [µM] | GI50 (PC-3) [µM] | GI50 (MDA-MB-231) [µM] | GI50 (HCT-15) [µM] | GI50 (NCI-H23) [µM] | Structure (SMILES) | GI50 (NUGC-3) [µM] | inhibition (RAW264.7 [2]) | inhibition (RAW264.7 [3]) | inhibition (RAW264.7 [4]) | inhibition (RAW264.7 [5])
1 | > 30 | 14.5 | > 30 | > 30 | > 30 | > 30 | CC(/C=C/[C@H](C)C(C)C)=C1\[C@H](O)C[C@H]2C3=CC(=O)[C@@]4(O)C[C@@H](O)CC[C@]4(C)[C@H]3CC[C@]12C | > 30 |  |  |  | 
2 | > 30 | 19.5 | > 30 | > 30 | > 30 | > 30 | CC(/C=C/[C@H](C)C(C)C)=C1\CC[C@H]2C3=CC(=O)[C@@]4(O)C[C@@H](O)CC[C@]4(C)[C@@]3(O)CC[C@]12C | > 30 |  |  |  | 
3 | 12.5 | 11.6 | 13.8 | 13.5 | 13.2 | 10.3 | CC(/C=C/[C@H](C)C(C)C)=C1\CC[C@H]2C3=CC(=O)[C@@]4(O)C[C@@H](O)CC[C@]4(C)[C@H]3CC[C@]12C | 11.5 | Dde | Dde | Dde | Dde
4 | 0.07 |  | 0.09 | 0.08 | 0.09 | 0.08 | COc1cccc2c1C(=O)c1c(O)c3c(c(O)c1C2=O)C[C@@](O)(C(=O)CO)C[C@@H]3O[C@H]1C[C@H](N)[C@H](O)[C@H](C)O1 [DOXORUBICIN HYDROCHLORIDE] | 0.08 |  |  |  | 
5 | 4.3 |  | 3.9 | 3.4 | 4.5 | 4.4 | CC(/C=C/[C@H](C)C(C)C)=C1\[C@H](O)C[C@H]2c3cc4c(c(C)c3CC[C@]12C)CC[C@H](O)C4 | 4.2 |  |  |  | 
